The source of these data is patent US20100120700A1, “METHODS AND COMPOSITIONS FOR TREATING CERVICAL CANCER” (priority 2000, published 2010).

Entries after “also recorded” stand apart in the source; their conditions may differ.

Assay [1] deals with T1, TIP1 (Homo sapiens, UniProt O14907).
T1 construct: made in house; host or cells: E. coli (DH5alpha, BL21 or JM109)
The experiment in a line: G assay peptide titration (EC50). It is filed as binding. Conditions: E6 peptide titrated against constant GST-PDZ.
Protocol: (4) For each concentration of peptide, the net binding signal is determined by subtracting the binding of the peptide to GST alone from the binding of the peptide to the GST/PDZ fusion protein. […]
Relative binding affinities for the 14 most significant interactions with different PDZ domains were determined by E6 peptide titrations.

The target of assay [2] is Magi3 (PDZ1) (Homo sapiens, UniProt Q5TCQ9). Conditions: E6 peptide titrated against constant GST-PDZ; Magi3 (1). How it is done:
(§1) (1) A GST/PDZ fusion protein, as well as GST alone as a negative control, are bound to a surface (e.g., a 96-well plate) and the surface blocked and washed as described supra for the “G” assay.
(§2) (2) 50 uL per well of a solution of biotinylated PL peptide (e.g. as shown in TABLE 2) is added to the surface in increasing concentrations in PBS/BSA (e.g. at 0.1 uM, 0.33 uM, 1 uM, 3.3 uM, 10 uM, 33 uM, and 100 uM). In one embodiment, the PL peptide is allowed to react with the bound GST/PDZ fusion protein (as well as the GST alone negative control) for 10 minutes at 4° C. followed by 20 minutes at 25° C. The plate is washed 3 times with ice cold PBS to remove unbound labeled peptide.
(§3) (3) The binding of the PL peptide to the immobilized PDZ-domain polypeptide is detected as described supra for the “G” assay.
(§4) (4) For each concentration of peptide, the net binding signal is determined by subtracting the binding of the peptide to GST alone from the binding of the peptide to the GST/PDZ fusion protein. The net binding signal is then plotted as a function of ligand concentration and the plot is fit (e.g. by using the Kaleidagraph software package curve fitting algorithm; Synergy Software) to the following equation, where “Signal[ligand]” is the net binding signal at PL peptide concentration “[ligand],” “Kd” is the apparent affinity of the binding event, and “Saturation Binding” is a constant determined by the curve fitting algorithm to optimize the fit to the experimental data: […]

In assay [3] the target is Magi1C (PDZ2) (Homo sapiens, UniProt Q96QZ7). Conditions: E6 peptide titrated against constant GST-PDZ; Table 10 prints Magi1C (1). The method, then: as §1, §2, §3, §4
Assay [4] deals with SAST2. Conditions: E6 peptide titrated against constant GST-PDZ; SAST2 (1). The method, then: as §1, §2, §3, §4
Assay [5] concerns the target SIP1 (PDZ1) (Homo sapiens, UniProt Q15599). Conditions: E6 peptide titrated against constant GST-PDZ; SIP1 (1). How it is done: as §1, §2, §3, §4
Assay [6] addresses T2, Magi2 domain 5 (Homo sapiens, UniProt Q86UL8).
T2 construct: made in house; host or cells: E. coli (DH5alpha, BL21 or JM109), vector pGEX-3X
The assay can be described thus: G assay PDZ-PL binding. Conditions: peptide 10 uM, protein 5. How it is done:
(§5) (1) A PDZ-domain polypeptide is bound to a surface, e.g. a protein binding surface. In a preferred embodiment, a GST/PDZ fusion protein containing one or more PDZ domains is bound to a polystyrene 96-well plate. […] In one embodiment, the GST/PDZ fusion protein is bound via an anti-GST antibody that is coated onto the 96-well plate. Adequate binding to the plate can be achieved when: • a. 100 uL per well of 5 ug/mL goat anti-GST polyclonal antibody (Pierce) in PBS is added to a polystyrene 96-well plate (e.g., Num Polysorb) at 4° C. for 12 hours. • b. The plate is blocked by addition of 200 uL per well of PBS/BSA for 2 hours at 4° C. • c. The plate is washed 3 times with PBS. • d. 50 uL per well of 5 ug/mL GST/PDZ fusion protein) or, as a negative control, GST polypeptide alone (i.e. not a fusion protein) in PBS/BSA is added to the plate for 2 hours at 4° C. • e. The plate is again washed 3 times with PBS.
(§6) (2) Biotinylated PL peptides are allowed to react with the surface by addition of 50 uL per well of 20 uM solution of the biotinylated peptide in PBS/BSA for 10 minutes at 4° C., followed by an additional 20 minute incubation at 25° C.
(§7) (3) The binding of the biotinylated peptide to the GST/PDZ fusion protein surface can be detected using a variety of methods and detectors known to one of skill in the art. In one embodiment, 100 uL per well of 0.5 ug/mL streptavidin-horse radish peroxidase (HRP) conjugate dissolved in BSA/PBS is added and allowed to react for 20 minutes at 4° C. The plate is then washed 5 times with 50 mM Tris pH 8.0 containing 0.2% Tween 20, and developed by addition of 100 uL per well of HRP-substrate solution (TMB, Dako) for 20 minutes at room temperature (RT). The reaction of the HRP and its substrate is terminated by addition of 100 uL per well of 1M sulfuric acid, and the absorbance of each well of the plate is read at 450 nm.
(§8) (4) Specific binding of a PL peptide and a PDZ domain polypeptide is determined by comparing the signal from the well(s) in which the PL peptide and PDZ domain polypeptide are combined, with the background signal(s). The background signal is the signal found in the negative control(s). Typically a specific or selective reaction will be at least twice background signal, more typically more than 5 times background, and most typically 10 or more times the background signal. In addition, a statistically significant reaction will involve multiple measurements of the reaction with the signal and the background differing by at least two standard errors, more typically four standard errors, and most typically six or more standard errors. Correspondingly, a statistical test (e.g. a T-test) comparing repeated measurements of the signal with-repeated measurements of the background will result in a p-value<0.05, more typically a p-value<0.01, and most typically a p-value<0.001 or less. As noted, in an embodiment of the “G” assay, the signal from binding of a given PL peptide to immobilized (surface bound) GST polypeptide alone is one suitable negative control (sometimes referred to as “B 1”). Because all measurement are done in multiples (i.e. at least duplicate) the arithmetic mean (or, equivalently, average.) of several measurements is used in determining the binding, and the standard error of the mean is used in determining the probable error in the measurement of the binding. The standard error of the mean of N measurements equals the square root of the following: the sum of the squares of the difference between each measurement and the mean, divided by the product of (N) and (N−1). Thus, in one embodiment, specific binding of the PDZ protein to the platebound peptide is determined by comparing the mean signal (“mean S”) and standard error of the signal (“SE”) for a particular PL-PDZ combination with the mean B1. […]

For assay [7], the target named is T3, KIAA0751 domain 1 (Homo sapiens, UniProt Q9UQ26).
T3 construct: made in house; host or cells: E. coli (DH5alpha, BL21 or JM109)
The experiment in a line: G assay PDZ-PL binding. Conditions: peptide 10 uM, protein 5. The method, then: as §5, §6, §7, §8

Assay [8] relates to human PDZ domains. The assay can be described thus: G assay, E6 PL peptides against PDZ domain panel. Conditions: value names the PDZ domain(s) that saturated binding with the E6 peptide; signal classes (A450 nm 3-4 or 4). The method, then:
as §5, with “50 uL per well of 5 ug/mL GST/PDZ fusion protein) or, as a negative control, GST polypeptide alone (i.e. not a fusion protein) in PBS/BSA is added to the plate for 2 hours at 4° C. • e. The plate is again washed 3 times with PBS.” left out
(3) The binding of the biotinylated peptide to the GST/PDZ fusion protein surface can be detected using a variety of methods and detectors known to one of skill in the art. […] The reaction of the HRP and its substrate is terminated by addition of 100 uL per well of 1M sulfuric acid, and the absorbance of each well of the plate is read at 450 nm.
(4) Specific binding of a PL peptide and a PDZ domain polypeptide is determined by comparing the signal from the well(s) in which the PL peptide and PDZ domain polypeptide are combined, with the background signal(s). […]

T3 sequence (Q9UQ26 with tags, fused parts or gaps): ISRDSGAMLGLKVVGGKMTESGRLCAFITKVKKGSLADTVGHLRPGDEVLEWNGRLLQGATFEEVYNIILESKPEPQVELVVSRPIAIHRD
T2 sequence (Q86UL8 1134-1231): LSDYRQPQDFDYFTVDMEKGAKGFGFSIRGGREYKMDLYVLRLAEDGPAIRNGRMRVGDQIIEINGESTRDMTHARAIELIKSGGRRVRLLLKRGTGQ
T1 sequence (O14907 14-116): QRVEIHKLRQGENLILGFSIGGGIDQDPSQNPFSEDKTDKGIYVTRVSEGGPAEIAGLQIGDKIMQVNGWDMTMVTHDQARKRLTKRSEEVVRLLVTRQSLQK
Chain of Magi3 (PDZ1) (Q5TCQ9 401-502): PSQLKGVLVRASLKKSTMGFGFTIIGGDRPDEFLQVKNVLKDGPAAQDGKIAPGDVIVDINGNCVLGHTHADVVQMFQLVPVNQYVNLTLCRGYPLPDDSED
Chain of Magi1C (PDZ2) (Q96QZ7 463-566): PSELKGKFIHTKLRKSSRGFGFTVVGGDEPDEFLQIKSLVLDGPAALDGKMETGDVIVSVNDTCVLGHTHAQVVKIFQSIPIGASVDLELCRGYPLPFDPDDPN
Chain of SIP1 (PDZ1) (Q15599 with tags, fused parts or gaps): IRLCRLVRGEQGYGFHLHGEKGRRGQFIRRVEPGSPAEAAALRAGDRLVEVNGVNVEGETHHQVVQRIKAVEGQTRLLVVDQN

A word on the EC50: it is the midpoint of the concentration-response curve. Consider “20 mer peptide corresponding to the C-terminus of HPV16 E6 (PDZ ligand), biotinylated in binding assays; ends SSRTRRETQL (SEQ ID NO: 13) [HPV E6 #16]”, for which the EC50 was 750 nM in assay [1]; 310 nM in assay [2]; 56 nM in assay [3]; 1200 nM in assay [4]; 7500 nM in assay [5]. Besides, the “Ave OD” value in assay [6] (A450 nm) turned out to be 0.651; in assay [7] (A450 nm) it was 0.4505. In addition, the “OD S/N” value is on record as 3.93 in assay [6] (vs GST only well) and 2.10 in assay [7] (vs GST only well). The “PDZ binding partner (signal 4 and 5 of 0-5)” value in assay [8] is recorded as “TIP-1; also recorded: Magi1 (PDZ #2)”.
